Measured values as given in US6747021B2, “Cryptophycin compound” (Eli Lilly and Company, priority 2000, dated 2004).
Read-outs that look alike come from different tables or passages of the source.

Legend:
[1] = system: MAMMARY ADENOCARCINOMA 16/C; assay type: in vivo, murine; details: C3H/HeN female mice
Excerpt: (§1) Inhibition of tumors transplanted into mice is an accepted procedure for studying the efficacy of antitumor agents (Corbett, et al., In vivo Methods for Screening and Preclinical Testing; Use of rodent solid tumors for drug discovery., In: Anticancer Drug Development Guide: Preclinical Screening, Clinical Trials, and Approval, B. Teicher (ed), Humana Press Inc., Totowa, N.J., Chapter 5, pages 75-99 (1997); (Corbett, et al., Int. J. Pharmacog., 33, Supplement, 102-122 (1995)). Murine tumors or human xenographs were implanted essentially as described by Corbett in In vivo Methods for Screening and Preclinical Testing; Use of rodent solid tumors for drug discovery. Briefly, the murine tumor or human xenograph was implanted subcutaneously using either 12-gauge trocar implants or counted number of cells. The location for the trocar insertion is midway between the axillary and inguinal region along the side of the mouse. The trocar is slipped approximately ¾ of an inch subcutaneously up toward the axilla before discharging the tumor fragment, and pinching the skin as the trocar is removed. Alternatively, human tumor cells prepared from a […] of donor tumors (5×10^6 cells) were implanted subcutaneously in a hind-leg of a male or female nude mouse (Charles River). Either a test compound in vehicle or vehicle alone was administered by intravenous bolus injection (iv), intraperitoneal injection (ip), or oral gavage (po). Each treatment group, as well as a group of untreated control animals, consisted of five animals per group in each experiment. Subcutaneous tumor response was monitored by tumor volume measurement performed twice each week over the course of the experiment (60-120 days). Body weights were taken as a general measure of toxicity. The subcutaneous tumor data were analyzed by determining the median tumor weight for each treatment group over the course of the experiment and calculating the tumor growth delay as the difference in days for the treatment versus the control tumors to reach a volume of either 500 or 1000 mm^3.
(§2) Cryptophycin-309 (309) was tested against a variety of murine and human tumors substantially as described supra. Cryptophycin-55 glycinate (55-GLY), Taxol, and Adriamycin (Adria) were also included in certain tests for purposes of comparison. Cryptophycin 55 glycinate is known in the art (WO 98/08505, Example 9) and has the following structure: [drawing 9]
(§3) Tumor Weight(mg)=(a×b^2)/2 where a=tumor length (mm) and b=tumor width (mm).
(§4) Tumor Growth Delay=T−C where T is the median time (days) required for the treatment group tumors to reach a predetermined size, and C is the median time (days) for the control group tumors to reach the same size. Tumor-free survivors are excluded from this calculation, and are tabulated separately (Tumor Free).
(§5) Log Kill=Tumor Growth Delay/(3.32)(Td)
(§6) where Tumor Growth Delay is as previously defined and Td is tumor volume doubling time (days), estimated from the best fit straight line from a log-linear growth plot of the control group of tumors in exponential growth (100-800 mg range)
(§7) %T/C mass—The treatment and control groups are measured when the control group tumors reach approximately 700 to 1200 mg in size (median group). The median tumor weight of each group is determined (including zeros). The T/C value in percent is an indication of antitumor effectiveness. A T/C≦42% is considered significant antitumor activity. A T/C<10% is considered to indicate highly significant antitumor activity.
(§8) Body Weight Loss Nadir—A body weight loss nadir (mean of group) of greater than 20% or drug deaths greater than 20% are considered to indicate an excessively toxic dosage in single course trials.
(§9) Activity Rating—the Activity Rating is derived from the Log Kill according to the following table: […]

[2] = system: MAMMARY ADENOCARCINOMA-17/ADR/Resist.; assay type: in vivo, murine; details: C3H female mice
Excerpt: as §1, §2, §3, §4, §5, §6, §7, §8, §9

[3] = system: PANCREATIC DUCTAL ADENOCARCINOMA #02; assay type: in vivo, murine; details: BDF1 female mice
Excerpt: as §1, §2, §3, §4, §5, §6, §7, §8, §9

HUMAN COLON ADEN[…]-116 = experiment: Early stage human colon adenocarcinoma HCT-116 xenograft assay; assay type: in vivo; details: Balb/C SCID female mice
Excerpt: as §1, §2, §3, §4, §5, §6, §7, §8, §9

[4] = system: MAMMARY ADENOCARCINOMA-16/C/Adr; experiment: Early stage murine mammary adenocarcinoma-16/C/Adr subcutaneous tumor assay; assay type: in vivo; details: C3H female mice
Excerpt: as §1, §2, §3, §4, §5, §6, §7, §8, §9

[5] = system: HUMAN COLON ADENOCARCINOMA 15; assay type: in vivo; details: Balb/C SCID female mice
Excerpt: as §1, §2, §3, §4, §5, §6, §7, §8, §9

[6] = system: COLON ADENOCARCINOMA-26/A; assay type: in vivo, murine; details: IV 10 mg/kg/inj QD 1-7, 9; total dose 80 mg/kg; Balb/C female mice
Excerpt: as §1, §2, §3, §4, §5, §6, §7, §8, §9

[7] = system: COLON ADENOCARCINOMA 51/A; experiment: Early stage murine colon adenocarcinoma 51/A subcutaneous tumor assay; assay type: in vivo; details: IV 10 mg/kg/inj QD 1-8; total dose 80 mg/kg; CDF female mice
Excerpt: as §1, §2, §3, §4, §5, §6, §7, §8, §9

[8] = IV 28 mg/kg/inj days 3,5,7,9,11, total dose 140 mg/kg
[9] = IV 42 mg/kg/inj days 3,5,7,9,11, total dose 210 mg/kg
[10] = IV 28 mg/kg/inj days 1,3,5,7,9, total dose 140 mg/kg
[11] = IV 42 mg/kg/inj days 1,3,5,7,9, total dose 210 mg/kg
[12] = IV 28 mg/kg/inj days 1,3,5,7,9, total dose 140 mg/kg, experiment ##
[13] = IV 42 mg/kg/inj days 1,3,5,7,9, total dose 210 mg/kg, experiment ##
[14] = IV 32 mg/kg/inj twice/day days 3,5,7,9,11, total dose 320 mg/kg
[15] = IV 42 mg/kg/inj days 1,3,7,9, total dose 168 mg/kg
[16] = IV 8 mg/kg/inj QD 3-11, total dose 72 mg/kg
[17] = IV 8 mg/kg/inj QD 1-8, total dose 64 mg/kg, experiment #
[18] = IV 9 mg/kg/inj QD 3-10, total dose 72 mg/kg
[19] = IV 10 mg/kg/inj QD 1-7, total dose 70 mg/kg
[20] = IV 9.5 mg/kg/inj QD 3-11, total dose 85.5 mg/kg

COc1ccc(C[C@H]2NC(=O)/C=C/C[C@@H]([C@H](C)[C@@H](OC(=O)CN)[C@@H](Cl)c3ccccc3)OC(=O)[C@H](CC(C)C)OC(=O)C(C)(C)CNC2=O)cc1Cl [Cryptophycin 55-GLY, Cryptophycin-55 glycinate]
% T/C MASS [1, 8]: 0%
ACTIVITY RATING [1, 8]: ++++ (>2.8)
DRUG DEATHS [1, 8]: 0/5
GROWTH DELAY [1, 8]: 15 days
LOG KILL [1, 8]: 3.5
MEDIAN TUMOR WEIGHT [1, 8]: 0 mg
% T/C MASS [1, 9]: 0%
ACTIVITY RATING [1, 9]: ++++ (>2.8)
DRUG DEATHS [1, 9]: 0/5
GROWTH DELAY [1, 9]: 17.5 days
LOG KILL [1, 9]: 4.1
MEDIAN TUMOR WEIGHT [1, 9]: 0 mg
% T/C MASS [2, 10]: 24%
ACTIVITY RATING [2, 10]: ++ (1.3-1.9)
DRUG DEATHS [2, 10]: 0/5
GROWTH DELAY [2, 10]: 5.25 days
LOG KILL [2, 10]: 1.6
MEDIAN TUMOR WEIGHT [2, 10]: 577 mg
% T/C MASS [2, 11]: 0%
ACTIVITY RATING [2, 11]: +++ (2.0-2.8)
DRUG DEATHS [2, 11]: 0/5
GROWTH DELAY [2, 11]: 7.6 days
LOG KILL [2, 11]: 2.3
MEDIAN TUMOR WEIGHT [2, 11]: 0 mg
% T/C MASS [3, 12]: 9%
ACTIVITY RATING [3, 12]: ++ (1.3-1.9)
DRUG DEATHS [3, 12]: 0/5
GROWTH DELAY [3, 12]: 13 days
LOG KILL [3, 12]: 1.8
MEDIAN TUMOR WEIGHT [3, 12]: 95 mg
% T/C MASS [3, 13]: 0%
ACTIVITY RATING [3, 13]: +++ (2.0-2.8)
DRUG DEATHS [3, 13]: 0/5
GROWTH DELAY [3, 13]: 16 days
LOG KILL [3, 13]: 2.2
MEDIAN TUMOR WEIGHT [3, 13]: 0 mg
% T/C MASS (HUMAN COLON ADEN[…]-116; [8]): 5.5%
ACTIVITY RATING (HUMAN COLON ADEN[…]-116; [8]): +++ (2.0-2.8)
DRUG DEATHS (HUMAN COLON ADEN[…]-116; [8]): 0/5
GROWTH DELAY (HUMAN COLON ADEN[…]-116; [8]): 22 days
LOG KILL (HUMAN COLON ADEN[…]-116; [8]): 2.65
MEDIAN TUMOR WEIGHT (HUMAN COLON ADEN[…]-116; [8]): 63 mg
% T/C MASS (HUMAN COLON ADEN[…]-116; [14]): 0%
ACTIVITY RATING (HUMAN COLON ADEN[…]-116; [14]): ++++ (>2.8)
DRUG DEATHS (HUMAN COLON ADEN[…]-116; [14]): 0/4
GROWTH DELAY (HUMAN COLON ADEN[…]-116; [14]): 35 days
LOG KILL (HUMAN COLON ADEN[…]-116; [14]): 4.2
MEDIAN TUMOR WEIGHT (HUMAN COLON ADEN[…]-116; [14]): 0 mg
% T/C MASS (HUMAN COLON ADEN[…]-116; [9]): 0%
ACTIVITY RATING (HUMAN COLON ADEN[…]-116; [9]): ++++ (>2.8)
DRUG DEATHS (HUMAN COLON ADEN[…]-116; [9]): 0/5
GROWTH DELAY (HUMAN COLON ADEN[…]-116; [9]): 25 days
LOG KILL (HUMAN COLON ADEN[…]-116; [9]): 3.0
MEDIAN TUMOR WEIGHT (HUMAN COLON ADEN[…]-116; [9]): 0 mg
% T/C MASS [4, 10]: 24%
ACTIVITY RATING [4, 10]: ++ (1.3-1.9)
DRUG DEATHS [4, 10]: 0/5
GROWTH DELAY [4, 10]: 6.2 days
LOG KILL [4, 10]: 1.7
MEDIAN TUMOR WEIGHT [4, 10]: 48 mg
% T/C MASS [4, 15]: 0%
ACTIVITY RATING [4, 15]: +++ (2.0-2.8)
DRUG DEATHS [4, 15]: 0/5
GROWTH DELAY [4, 15]: 7.8 days
LOG KILL [4, 15]: 2.1
MEDIAN TUMOR WEIGHT [4, 15]: 0 mg
% T/C MASS [5, 8]: 15%
ACTIVITY RATING [5, 8]: +++ (2.0-2.8)
DRUG DEATHS [5, 8]: 0/5
GROWTH DELAY [5, 8]: 21.5 days
LOG KILL [5, 8]: 2.2
MEDIAN TUMOR WEIGHT [5, 8]: 171 mg
% T/C MASS [5, 14]: 0%
ACTIVITY RATING [5, 14]: ++++ (>2.8)
DRUG DEATHS [5, 14]: 0/5
GROWTH DELAY [5, 14]: 56 days
LOG KILL [5, 14]: 4.0
MEDIAN TUMOR WEIGHT [5, 14]: 0 mg
% T/C MASS [5, 9]: 5.5%
ACTIVITY RATING [5, 9]: +++ (2.0-2.8)
DRUG DEATHS [5, 9]: 0/5
GROWTH DELAY [5, 9]: 21.5 days
LOG KILL [5, 9]: 2.2
MEDIAN TUMOR WEIGHT [5, 9]: 63 mg

CC(=O)O[C@H]1C(=O)[C@@]2(C)[C@H]([C@H](OC(=O)c3ccccc3)[C@]3(O)C[C@H](OC(=O)[C@H](O)[C@@H](NC(=O)c4ccccc4)c4ccccc4)C(C)=C1C3(C)C)[C@]1(OC(C)=O)CO[C@@H]1C[C@@H]2O [Taxol]
% T/C MASS [1, 16]: 0%
ACTIVITY RATING [1, 16]: ++++ (>2.8)
DRUG DEATHS [1, 16]: 0/5
GROWTH DELAY [1, 16]: 12.5 days
LOG KILL [1, 16]: 2.9
MEDIAN TUMOR WEIGHT [1, 16]: 0 mg
% T/C MASS [6]: 57%
DRUG DEATHS [6]: 0/5
LOG KILL [6]: None
MEDIAN TUMOR WEIGHT [6]: 516 mg
% T/C MASS [3, 17]: 79%
DRUG DEATHS [3, 17]: 0/5
GROWTH DELAY [3, 17]: 1 days
LOG KILL [3, 17]: 0.1
MEDIAN TUMOR WEIGHT [3, 17]: 1296 mg
% T/C MASS [7]: 25%
ACTIVITY RATING [7]: + (0.7-1.2)
DRUG DEATHS [7]: 0/6
GROWTH DELAY [7]: 5.6 days
LOG KILL [7]: 0.7
MEDIAN TUMOR WEIGHT [7]: 288 mg
% T/C MASS (HUMAN COLON ADEN[…]-116; [18]): 11%
ACTIVITY RATING (HUMAN COLON ADEN[…]-116; [18]): +++ (2.0-2.8)
DRUG DEATHS (HUMAN COLON ADEN[…]-116; [18]): 0/5
GROWTH DELAY (HUMAN COLON ADEN[…]-116; [18]): 17 days
LOG KILL (HUMAN COLON ADEN[…]-116; [18]): 2.0
MEDIAN TUMOR WEIGHT (HUMAN COLON ADEN[…]-116; [18]): 126 mg
DRUG DEATHS [4, 19]: 0/5
LOG KILL [4, 19]: None
MEDIAN TUMOR WEIGHT [4, 19]: 1198 mg
% T/C MASS [5, 20]: 67%
DRUG DEATHS [5, 20]: 0/5
GROWTH DELAY [5, 20]: 3.5 days
LOG KILL [5, 20]: 0.4
MEDIAN TUMOR WEIGHT [5, 20]: 1044 mg
